In ChEMBL document CHEMBL3091339 (J Med Chem, 2013):
Activity calls are given as the source filed them.

Tests used:
[1] = tested on: Mus musculus; assay: Anticonvulsant activity in CD-1 mouse assessed as protection against maximal electroshock-induced tonic extension of hind limbs at 100 mg/kg, po after 0.5 hrs; type: functional, organism-based; parameters: dose 100 mg/kg; details: Hindlimb
[2] = tested on: Mus musculus; assay: Anticonvulsant activity in CD-1 mouse assessed as protection against maximal electroshock-induced tonic extension of hind limbs at 300 mg/kg, ip after 0.5 hrs; type: functional, organism-based; parameters: dose 300 mg/kg; details: Hindlimb
[3] = tested on: Mus musculus; assay: Anticonvulsant activity in CD-1 mouse assessed as protection against maximal electroshock-induced tonic extension of hind limbs at 100 mg/kg, po after 2 hrs; type: functional, organism-based; parameters: dose 100 mg/kg; details: Hindlimb
[4] = tested on: Mus musculus; assay: Anticonvulsant activity in CD-1 mouse assessed as protection against maximal electroshock-induced tonic extension of hind limbs at 300 mg/kg, po after 2 hrs; type: functional, organism-based; parameters: dose 300 mg/kg; details: Hindlimb
[5] = tested on: Mus musculus; assay: Anticonvulsant activity in CD-1 mouse assessed as protection against maximal electroshock-induced tonic extension of hind limbs at 300 mg/kg, po after 0.5 hrs; type: functional, organism-based; parameters: dose 300 mg/kg; details: Hindlimb
[6] = tested on: Mus musculus; assay: Anticonvulsant activity in intravenous PTZ-induced CF-1 mouse assessed as increase in seizure threshold for twitch at 182 mg/kg, po treated for 15 mins prior to PTZ-challenge relative to control; type: functional
[7] = tested on: Mus musculus; assay: Anticonvulsant activity in intravenous PTZ-induced CF-1 mouse assessed as increase in seizure threshold for clonus at 182 mg/kg, po treated for 15 mins prior to PTZ-challenge relative to control; type: functional
[8] = Neurotoxicity in po dosed Sprague-Dawley rat by rotarod test; type: toxicity, organism-based; details: in vivo
[9] = biological target: Carbonic anhydrase 2 (Homo sapiens, UniProt P00918)
Description: Inhibition of human carbonic anhydrase 2 by CO2 hydration assay

[10] = tested on: Liver microsome; assay: Drug metabolism in human liver microsomes assessed as hydroxylation metabolite formation by LC-MS/MS analysis; type: ADME
[11] = biological target: Voltage-dependent N-type calcium channel subunit alpha-1B (Rattus norvegicus) (UniProt Q02294); assay: Inhibition of rat Cav2.2-mediated calcium flux expressed in HEK cells at 100 uM at 0.07 Hz by whole-cell patch-clamp assay relative to control; type: cell-based; details: HEK293
[12] = biological target: Histamine H1 receptor (Homo sapiens) (UniProt P35367); assay: Inhibition of histamine H1 receptor (unknown origin) at 10 uM relative to control
[13] = Cmax in beagle dog at 10 mg/kg, po; type: ADME, organism-based, Canis lupus familiaris; parameters: dose 10 mg/kg, route oral; details: in vivo
[14] = Neurotoxicity in rat by muscle tone test; type: toxicity, organism-based, Muscle tissue; details: in vivo
[15] = Volume of distribution at steady state in beagle dog at 2 mg/kg, iv; type: ADME, organism-based, Canis lupus familiaris; parameters: dose 2 mg/kg, route intravenous; details: in vivo, read-out: Vdss
[16] = AUC in beagle dog at 10 mg/kg, po; type: ADME, organism-based, Canis lupus familiaris; parameters: dose 10 mg/kg, route oral; details: plasma
[17] = Volume of distribution at steady state in rat at 2 mg/kg, iv; type: ADME, organism-based; parameters: dose 2 mg/kg, route intravenous; details: in vivo, read-out: Vdss
[18] = biological target: Sodium channel protein type 2 subunit alpha (Rattus norvegicus) (UniProt P04775); type: cell-based; details: CHL1610
[19] = biological target: Voltage-dependent N-type calcium channel subunit alpha-1B (Rattus norvegicus) (UniProt Q02294); assay: Inhibition of rat Cav2.2-mediated calcium flux expressed in HEK cells at 100 uM at 5 Hz by whole-cell patch-clamp assay relative to control; type: cell-based; details: HEK293
[20] = biological target: Sodium-dependent dopamine transporter (Homo sapiens) (UniProt Q01959); assay: Binding affinity to dopamine transporter (unknown origin)
[21] = tested on: Rattus norvegicus; assay: Anticonvulsant activity in ip dosed Sprague-Dawley rat hippocampal kindling model assessed as effect on after discharge duration treated 15 for mins post suprathreshold-stimulation; type: functional, organism-based; details: Hippocampus
[22] = biological target: T1, Voltage-dependent N-type calcium channel subunit alpha-1B (Rattus norvegicus, UniProt Q02294)
Description: Inhibition of rat Cav2.2-mediated calcium flux expressed in HEK cells by FDSS assay

[23] = tested on: Canis familiaris; assay: Oral bioavailability in beagle dog at 10 mg/kg; type: ADME, organism-based, Canis lupus familiaris; details: in vivo
[24] = species on record: Homo sapiens; assay: Binding affinity to GABA (unknown origin) at 10 uM
[25] = tested on: Mus musculus; assay: Anticonvulsant activity in intravenous PTZ-induced CF-1 mouse assessed as increase in seizure threshold for clonus at […], ip treated for 15 mins prior to PTZ-challenge relative to control; type: functional
[26] = Cmax in rat at 10 mg/kg, po; type: ADME, organism-based; parameters: dose 10 mg/kg, route oral; details: in vivo
[27] = biological target: T2, 5-hydroxytryptamine receptor 2C (Homo sapiens) (UniProt P28335); assay: Binding affinity to 5HT2C receptor (unknown origin)
T2 sequence (whole entry): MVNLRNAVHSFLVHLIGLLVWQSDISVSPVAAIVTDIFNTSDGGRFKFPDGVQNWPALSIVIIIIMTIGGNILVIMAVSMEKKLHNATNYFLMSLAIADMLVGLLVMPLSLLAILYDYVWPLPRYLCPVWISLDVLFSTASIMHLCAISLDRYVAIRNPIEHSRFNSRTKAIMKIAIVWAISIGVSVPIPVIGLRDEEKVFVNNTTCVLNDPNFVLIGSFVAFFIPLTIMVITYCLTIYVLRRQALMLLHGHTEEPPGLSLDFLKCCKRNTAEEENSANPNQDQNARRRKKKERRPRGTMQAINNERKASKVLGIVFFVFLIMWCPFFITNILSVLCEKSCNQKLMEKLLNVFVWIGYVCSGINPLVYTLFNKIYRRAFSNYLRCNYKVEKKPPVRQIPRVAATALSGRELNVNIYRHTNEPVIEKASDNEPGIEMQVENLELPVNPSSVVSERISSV

[28] = Clearance in rat at 2 mg/kg, iv; type: ADME, organism-based; parameters: dose 2 mg/kg, route intravenous; details: in vivo
[29] = biological target: T1, Voltage-dependent N-type calcium channel subunit alpha-1B; remark: listed apart in the source
Description: Inhibition of rat Cav2.2-mediated calcium flux expressed in HEK cells at 0.07 Hz by whole-cell patch-clamp assay

[30] = biological target: Sodium channel protein type 2 subunit alpha (Rattus norvegicus, UniProt P04775); assay: Inhibition of rat Nav1.2 expressed in CHL1610 cells at -67 mV after 2 to 3 mins by whole-cell patch-clamp assay; type: cell-based
[31] = biological target: Sodium channel protein type 2 subunit alpha (Rattus norvegicus) (UniProt P04775); details: CHL1610
[32] = biological target: Carbonic anhydrase 1 (Homo sapiens, UniProt P00915); assay: Inhibition of carbonic anhydrase 1 (unknown origin)
[33] = Neurotoxicity in rat by positional sense test; type: toxicity, organism-based; details: in vivo
[34] = Half life in beagle dog at 10 mg/kg, po; type: ADME, organism-based, Canis lupus familiaris; parameters: dose 10 mg/kg, route oral; details: in vivo
[35] = species on record: Homo sapiens; assay: Binding affinity to central-type benzodiazepine receptor (unknown origin) at 10 uM
[36] = tested on: Mus musculus; assay: Anticonvulsant activity in intravenous PTZ-induced CF-1 mouse assessed as increase in seizure threshold for twitch at […], ip treated for 15 mins prior to PTZ-challenge relative to control; type: functional
[37] = in vivo; details: beagle, dog, po, 10 mg/kg
[38] = tested on: Rattus norvegicus; assay: Oral bioavailability in rat at 10 mg/kg; type: ADME, organism-based; details: in vivo
[39] = Clearance in beagle dog at 2 mg/kg, iv; type: ADME, organism-based, Canis lupus familiaris; parameters: dose 2 mg/kg, route intravenous; details: in vivo
[40] = in vivo; details: rat, po, 10 mg/kg
[41] = tested on: Rattus norvegicus; assay: Anticonvulsant activity in ip dosed Sprague-Dawley rat hippocampal kindling model assessed as reduction in global seizures treated 15 for mins post suprathreshold-stimulation; type: functional, organism-based; details: Hippocampus
[42] = species on record: Homo sapiens; assay: Binding affinity to chloride channel (unknown origin) at 10 uM
[43] = Half life in rat at 10 mg/kg, po; type: ADME, organism-based; parameters: dose 10 mg/kg, route oral; details: in vivo
[44] = tested on: Rattus norvegicus; assay: Anticonvulsant activity in ip dosed Sprague-Dawley rat hippocampal kindling model assessed as suppression of seizure activity treated 15 for mins post suprathreshold-stimulation; type: functional, organism-based; details: Hippocampus
[45] = species on record: Mus musculus; assay: animal or person; details: CF-1, Hindlimb, po, 2 h
Description: Anticonvulsant activity in po dosed CF-1 mouse assessed as protection against maximal electroshock-induced tonic extension of hind limbs measured at 2 hrs

[46] = species on record: Mus musculus
Description: Anticonvulsant activity in po dosed CF-1 mouse assessed as protection against maximal electroshock-induced tonic extension of hind limbs measured at 1 hr

Sodium channel protein type 2 subunit alpha (Rattus norvegicus), sequence (P04775 whole entry, looked up): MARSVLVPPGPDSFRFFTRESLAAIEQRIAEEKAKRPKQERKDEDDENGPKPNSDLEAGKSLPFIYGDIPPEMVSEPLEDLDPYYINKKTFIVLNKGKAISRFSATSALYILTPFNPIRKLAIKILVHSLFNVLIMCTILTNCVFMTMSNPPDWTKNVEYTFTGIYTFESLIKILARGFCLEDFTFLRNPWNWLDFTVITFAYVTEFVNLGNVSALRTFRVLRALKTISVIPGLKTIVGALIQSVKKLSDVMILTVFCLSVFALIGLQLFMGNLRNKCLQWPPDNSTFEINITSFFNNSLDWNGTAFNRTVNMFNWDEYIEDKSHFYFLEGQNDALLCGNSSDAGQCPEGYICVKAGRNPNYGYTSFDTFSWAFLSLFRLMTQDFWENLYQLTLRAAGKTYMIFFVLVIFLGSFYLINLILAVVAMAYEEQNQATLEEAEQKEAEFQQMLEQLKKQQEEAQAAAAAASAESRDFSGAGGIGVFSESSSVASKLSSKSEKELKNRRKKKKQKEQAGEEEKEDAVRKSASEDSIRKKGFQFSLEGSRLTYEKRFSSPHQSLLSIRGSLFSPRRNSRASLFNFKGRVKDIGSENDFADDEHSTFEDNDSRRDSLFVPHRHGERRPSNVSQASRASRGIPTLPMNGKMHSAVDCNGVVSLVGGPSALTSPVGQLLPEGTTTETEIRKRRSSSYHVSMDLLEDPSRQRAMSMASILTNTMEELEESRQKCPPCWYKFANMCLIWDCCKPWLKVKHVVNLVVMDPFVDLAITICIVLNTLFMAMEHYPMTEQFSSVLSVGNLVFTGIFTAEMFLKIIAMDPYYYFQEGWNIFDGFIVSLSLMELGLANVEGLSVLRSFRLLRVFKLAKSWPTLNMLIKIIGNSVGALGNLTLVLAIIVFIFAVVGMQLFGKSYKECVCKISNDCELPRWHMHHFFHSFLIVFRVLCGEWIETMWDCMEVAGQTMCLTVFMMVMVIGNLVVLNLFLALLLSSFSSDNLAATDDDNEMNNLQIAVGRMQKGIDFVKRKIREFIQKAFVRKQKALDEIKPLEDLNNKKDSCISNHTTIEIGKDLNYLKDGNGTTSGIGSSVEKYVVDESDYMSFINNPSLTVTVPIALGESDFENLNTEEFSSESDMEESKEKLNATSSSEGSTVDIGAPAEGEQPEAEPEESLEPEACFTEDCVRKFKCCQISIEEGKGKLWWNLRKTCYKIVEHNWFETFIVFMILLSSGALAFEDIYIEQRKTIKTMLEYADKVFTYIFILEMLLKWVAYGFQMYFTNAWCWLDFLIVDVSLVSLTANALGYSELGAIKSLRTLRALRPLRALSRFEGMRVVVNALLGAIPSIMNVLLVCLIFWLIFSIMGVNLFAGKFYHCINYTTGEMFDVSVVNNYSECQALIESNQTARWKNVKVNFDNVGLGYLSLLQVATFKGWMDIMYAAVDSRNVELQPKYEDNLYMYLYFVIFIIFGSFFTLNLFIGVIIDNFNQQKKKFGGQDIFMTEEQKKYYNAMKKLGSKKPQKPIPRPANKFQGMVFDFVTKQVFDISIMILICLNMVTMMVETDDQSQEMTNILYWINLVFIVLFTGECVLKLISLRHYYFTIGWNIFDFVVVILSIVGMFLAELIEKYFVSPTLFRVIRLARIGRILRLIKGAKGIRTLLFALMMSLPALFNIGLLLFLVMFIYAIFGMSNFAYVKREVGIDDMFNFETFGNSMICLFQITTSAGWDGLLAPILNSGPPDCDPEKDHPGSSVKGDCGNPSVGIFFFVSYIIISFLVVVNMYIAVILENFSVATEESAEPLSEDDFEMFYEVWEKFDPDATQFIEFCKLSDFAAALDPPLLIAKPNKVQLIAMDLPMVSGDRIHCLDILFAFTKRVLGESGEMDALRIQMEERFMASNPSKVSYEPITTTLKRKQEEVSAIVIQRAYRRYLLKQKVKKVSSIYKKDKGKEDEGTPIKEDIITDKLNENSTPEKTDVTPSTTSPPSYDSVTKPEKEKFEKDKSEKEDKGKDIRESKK
Carbonic anhydrase 1, sequence (P00915 whole entry): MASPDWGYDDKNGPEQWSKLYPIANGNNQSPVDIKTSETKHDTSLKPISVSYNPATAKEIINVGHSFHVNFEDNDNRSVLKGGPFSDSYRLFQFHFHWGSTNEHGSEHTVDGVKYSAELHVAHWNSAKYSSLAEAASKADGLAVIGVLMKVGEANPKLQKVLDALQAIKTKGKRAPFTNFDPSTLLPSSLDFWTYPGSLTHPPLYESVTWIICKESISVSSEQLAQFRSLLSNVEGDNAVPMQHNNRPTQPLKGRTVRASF
Voltage-dependent N-type calcium channel subunit alpha-1B (Rattus norvegicus), sequence (Q02294 whole entry, looked up): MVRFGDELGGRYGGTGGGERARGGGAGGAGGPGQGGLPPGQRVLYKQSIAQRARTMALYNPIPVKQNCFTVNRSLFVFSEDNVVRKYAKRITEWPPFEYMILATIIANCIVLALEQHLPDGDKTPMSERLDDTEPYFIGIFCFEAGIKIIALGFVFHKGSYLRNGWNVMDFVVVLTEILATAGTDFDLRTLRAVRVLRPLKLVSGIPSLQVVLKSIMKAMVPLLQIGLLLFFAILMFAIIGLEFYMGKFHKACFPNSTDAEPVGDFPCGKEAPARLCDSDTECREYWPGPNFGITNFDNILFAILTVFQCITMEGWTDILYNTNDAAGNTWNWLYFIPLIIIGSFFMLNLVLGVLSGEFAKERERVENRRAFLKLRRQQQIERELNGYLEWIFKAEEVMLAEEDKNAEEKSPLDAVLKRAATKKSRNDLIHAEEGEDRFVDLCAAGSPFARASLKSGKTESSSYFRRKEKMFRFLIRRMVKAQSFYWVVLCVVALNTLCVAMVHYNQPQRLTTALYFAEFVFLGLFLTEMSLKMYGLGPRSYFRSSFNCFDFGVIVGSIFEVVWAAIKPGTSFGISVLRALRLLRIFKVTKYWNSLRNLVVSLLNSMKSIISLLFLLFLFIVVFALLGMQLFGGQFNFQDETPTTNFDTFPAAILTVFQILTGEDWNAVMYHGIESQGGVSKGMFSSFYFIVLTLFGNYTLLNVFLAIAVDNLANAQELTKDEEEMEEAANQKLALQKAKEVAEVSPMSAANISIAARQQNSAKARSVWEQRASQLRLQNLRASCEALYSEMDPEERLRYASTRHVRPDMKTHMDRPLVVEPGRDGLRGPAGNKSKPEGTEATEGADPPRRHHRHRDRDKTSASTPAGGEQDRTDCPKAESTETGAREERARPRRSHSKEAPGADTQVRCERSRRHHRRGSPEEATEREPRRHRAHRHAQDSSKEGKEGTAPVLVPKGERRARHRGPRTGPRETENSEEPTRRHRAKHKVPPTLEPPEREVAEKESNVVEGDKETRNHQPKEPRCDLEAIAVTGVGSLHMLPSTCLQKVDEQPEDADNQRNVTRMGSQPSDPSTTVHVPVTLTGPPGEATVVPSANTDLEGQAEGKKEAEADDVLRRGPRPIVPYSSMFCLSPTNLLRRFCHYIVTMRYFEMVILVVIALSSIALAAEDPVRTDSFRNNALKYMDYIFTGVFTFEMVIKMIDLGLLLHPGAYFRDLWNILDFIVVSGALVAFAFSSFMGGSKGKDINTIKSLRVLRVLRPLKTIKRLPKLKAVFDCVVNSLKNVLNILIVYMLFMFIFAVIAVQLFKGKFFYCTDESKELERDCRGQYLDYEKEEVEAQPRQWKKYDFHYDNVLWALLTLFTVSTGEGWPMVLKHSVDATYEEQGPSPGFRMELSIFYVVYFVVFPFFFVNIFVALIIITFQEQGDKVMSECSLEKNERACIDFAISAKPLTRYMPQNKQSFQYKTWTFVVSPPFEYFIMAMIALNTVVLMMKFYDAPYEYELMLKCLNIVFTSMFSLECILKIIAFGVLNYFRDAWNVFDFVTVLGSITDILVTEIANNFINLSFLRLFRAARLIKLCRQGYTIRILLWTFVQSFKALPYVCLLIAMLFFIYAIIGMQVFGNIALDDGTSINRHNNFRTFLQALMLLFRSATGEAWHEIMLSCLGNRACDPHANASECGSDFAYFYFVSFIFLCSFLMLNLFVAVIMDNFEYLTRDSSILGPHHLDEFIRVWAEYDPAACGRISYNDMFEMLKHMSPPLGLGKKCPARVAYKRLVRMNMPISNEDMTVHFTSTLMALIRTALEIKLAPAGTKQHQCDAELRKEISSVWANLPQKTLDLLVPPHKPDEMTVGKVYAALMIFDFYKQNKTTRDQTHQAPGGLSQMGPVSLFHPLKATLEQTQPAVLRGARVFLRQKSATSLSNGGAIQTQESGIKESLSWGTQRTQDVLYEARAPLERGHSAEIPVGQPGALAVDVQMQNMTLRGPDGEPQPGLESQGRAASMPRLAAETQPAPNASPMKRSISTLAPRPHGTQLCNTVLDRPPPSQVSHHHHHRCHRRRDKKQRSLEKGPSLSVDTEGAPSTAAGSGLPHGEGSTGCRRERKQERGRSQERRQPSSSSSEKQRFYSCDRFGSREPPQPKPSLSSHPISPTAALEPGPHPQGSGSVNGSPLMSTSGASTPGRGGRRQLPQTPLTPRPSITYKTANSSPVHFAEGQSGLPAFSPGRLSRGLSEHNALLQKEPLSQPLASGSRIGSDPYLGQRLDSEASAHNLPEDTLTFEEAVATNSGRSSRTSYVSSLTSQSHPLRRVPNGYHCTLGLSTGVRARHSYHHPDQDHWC
T1 sequence (Q02294 whole entry): as the sequence (Q02294 whole entry, looked up) above
Histamine H1 receptor (Homo sapiens), sequence (P35367 whole entry): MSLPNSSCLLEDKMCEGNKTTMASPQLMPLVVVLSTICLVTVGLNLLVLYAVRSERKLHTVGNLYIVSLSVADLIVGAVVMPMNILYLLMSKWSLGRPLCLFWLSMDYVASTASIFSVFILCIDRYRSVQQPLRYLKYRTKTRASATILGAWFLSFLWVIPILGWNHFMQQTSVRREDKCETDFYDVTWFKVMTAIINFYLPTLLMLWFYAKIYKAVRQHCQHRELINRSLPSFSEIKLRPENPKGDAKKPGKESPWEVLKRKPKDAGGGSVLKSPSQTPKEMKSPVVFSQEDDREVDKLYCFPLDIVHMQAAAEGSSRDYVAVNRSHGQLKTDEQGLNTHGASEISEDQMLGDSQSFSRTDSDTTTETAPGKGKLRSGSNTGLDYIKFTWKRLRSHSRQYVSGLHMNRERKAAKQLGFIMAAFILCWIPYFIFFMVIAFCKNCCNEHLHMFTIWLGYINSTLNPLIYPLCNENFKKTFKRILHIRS

## NS(=O)(=O)NCC1Oc2ccccc2O1
[1]
  Activity: Active
[2]
  Activity: Active
[3]
  Activity: inactive

## NS(=O)(=O)NCCC1COc2ccccc2O1 (configuration not stated)
[4]
  Activity: inactive
[1]
  Activity: inactive
[5]
  Activity: Active
[3]
  Activity: inactive

## NS(=O)(=O)NC[C@H]1COc2c(F)cccc2O1
[4]
  Activity: Active
[3]
  Activity: inactive

## NS(=O)(=O)NC[C@H]1COc2cc(Br)ccc2O1
[4]
  Activity: Active
[5]
  Activity: inactive

## NS(=O)(=O)NC[C@H]1COc2cc(Cl)c(Cl)cc2O1
[1]
  Activity: inactive

## NS(=O)(=O)NC[C@H]1COc2cc(F)ccc2O1
[4]
  Activity: Active

## NS(=O)(=O)NC[C@H]1COc2cccc(Cl)c2O1
[3]
  Activity: inactive

## NS(=O)(=O)NCC1COc2ccccc2O1 (racemic)
[6]
  Activity: 41%
[2]
  Activity: Active
[7]
  Activity: 59%
[8]
  TD50: 182 mg/kg

## CN(C)S(=O)(=O)NCC1COc2ccccc2O1 (racemic)
[4]
  Activity: inactive
[9]
  IC50: > 1000 µM

## CN(CC1COc2ccccc2O1)S(N)(=O)=O (racemic)
[5]
  Activity: Active

## NS(=O)(=O)NC[C@H]1COc2cc(Cl)ccc2O1 [JNJ-26489112]
[10]
  Drug metabolism: Active
[11]
  inhibition: 37%
[4]
  Activity: Active
[12]
  inhibition: 23%
[1]
  Activity: inactive
[13]
  Cmax: 11500 ng/mL
[14]
  NOAEL: 500 mg/kg
[15]
  Vd: 0.63 L/kg
[16]
  AUC: 212 µg·h/mL
[17]
  Vd: 0.39 L/kg
[18]
  inhibition: inactive
[19]
  inhibition: 53%
[20]
  INH: 16 µM
[21]
  Activity: inactive
[22]
  IC50: 34 µM
[23]
  F: 83%
[24]
  inhibition: inactive
[25]
  Activity: 232%
[26]
  Cmax: 9090 ng/mL
[27]
  INH: 29 µM
[28]
  clearance: 1.6 mL/min/kg
[29]
  IC50: 70 µM
[30]
  IC50: 36 µM
[31]
  inhibition: Dose-dependent effect
[32]
  IC50: 18 µM
  Ki: 2.2 µM
[33]
  NOAEL: 500 mg/kg
[34]
  half-life: 20 h
[35]
  inhibition: inactive
[36]
  Activity: 80%
[37]
  Tmax: 0.917 h
[38]
  F: 95%
[39]
  clearance: 0.5 mL/min/kg
[40]
  Tmax: 0.883 h
[41]
  Activity: Active
[42]
  inhibition: inactive
[43]
  half-life: 8.2 h

## O=C1NC(=O)C(c2ccccc2)(c2ccccc2)N1 [PHENYTOIN]
[44]
  Activity: Active
[45]
  ED50: 9 mg/kg

## CC1(C)O[C@@H]2[C@@H](CO[C@@]3(COS(N)(=O)=O)OC(C)(C)O[C@@H]23)O1 [TOPIRAMATE]
[46]
  ED50: 43.8 mg/kg
[44]
  Activity: inactive
